Source: patent publication US12433892B2, “Compositions and methods of treatment for neurological disorders comprising depression” (Gliapharm SA, priority 2018, dated 2025)
Where a name gives a salt, the structure may show the parent alone.

Tests used:
primary astrocytes = experiment: Intracellular glycogen quantification, Example 2; type: cell-based, mouse; settings: 10 μM, 3 h (GP-0157: 0.1, 1, 10 μM)
Procedure: To assess for the effect of the compounds of the invention, those were tested in primary astrocytes, as described below. Secretion of lactate was measured directly in the extracellular medium, and indirectly through the acidification of extracellular medium using extracellular pH sensor SNARE-5F-(AND-6)-CAR (SNARF5). Glucose uptake was measured by quantification 2-deoxyglucose in the cell. Cell Cultures Primary cultures of cerebrocortical astrocytes were obtained from 1 to 2-day-old OF1 mouse pups (Charles River). Briefly, cortices were isolated and minced in small pieces under a dissecting microscope. The cells were incubated for 30 min at 37° C. in a solution containing 20 U/ml papain, 1 mM L-cysteine and 10 kU/ml DNase I. After dissociation, papain activity was stopped by the addition of fetal calf serum (FCS). Single-cell suspension was then obtained by mechanical dissociation, which consisted in cells trituration in a DMEM D7777 medium supplemented with 44 mm NaHCO3, 10 ml/L antibiotic/antimycotic solution and 10% FCS. The cells were seeded at an average density of ˜10'000 cells/cm2 on poly-D-lysine coated 96- or 12-well culture plates, depending on their use, and grown in DMEM D7777 medium supplemented with 44 mm NaHCO3, 10 ml/L antibiotic/antimycotic solution and 10% FCS at 37° C. in a humidified atmosphere containing 5% CO2/95% air. Culture medium was renewed twice a week. Cells were stimulated and harvested between DIV14 and DIV17, when confluence and cell growth were optimal. Extracellular Medium Acidification (SNARF5) Secretion of lactate was measured indirectly through the acidification of extracellular medium using extracellular pH sensor […] (SNARF5). After washing cells twice with stimulation medium (DMEM (D5030, Sigma), 1 mM NaHCO2, and 5 mM Glucose, pH 7.4) at 37° C., cells were stimulated with compounds at a final concentration ranging from 10 nM to 30 μM in 50 μl per well of stimulation medium supplemented with 10 μM of SNARF5 (Life Technologies Corporation). Each compound was tested in two different plates for duplicates. After 90 min stimulation, fluorescence was read at exc. (excitation) 480 nm/emm. (emission) 580 nm and at exc 480 nm/emm. 630 nm. The ratio of fluorescence between 630 nm and 580 emission values, which is proportional to extracellular pH, was calculated. In each plate, 8 wells were used for negative controls (DMSO 0.1%) and 8 wells were used for positive controls (CCCP 2 μM in DMSO). The extracellular medium acidification in primary mouse astrocytes treated with GP-A1 was quantified (FIG. 13). Extracellular medium acidification was measured over a period of 1.5 h and 3 h. […] Extracellular Lactate Quantification Secretion of L-lactate was measured in the extracellular medium of 96-well plated astrocytes after 90 min stimulation (at 37° C., in 5% CO2/95% air conditions) with Vehicle (DMSO), the compounds of the invention (100 nM to 100 μM) or positive control. […] Stimulation medium was composed of D5030 medium complemented with 5 mM D-glucose and 44 mM sodium bicarbonate, pH 7.2. To quantify lactate concentrations in the extracellular medium, 200 μl of a 0.2M Glycine-semicarbazide buffer (pH 10) containing 3 mM NAD and 14 U/ml LDH was added to each well of a 96-well plate containing 30 μl aliquots of extracellular medium. Samples were incubated at 37° C. for 1 h. Fluorescence intensity (340 nm excitation/450 nm emission), which represents the amount of NADH produced, was measured, and lactate concentration values were determined relative to a standard curve of L-lactate concentrations. The release of lactate from primary mouse astrocytes treated with GP-A1 was quantified (FIG. 5A and FIG. 14). Accumulation of lactate in the extracellular medium was measured over a period of 1.5 h. […] Intracellular Glycogen Quantification Astrocytes grown on 12-well plates were used for intracellular glycogen quantifications. […]

astrocytes [1] = experiment: Intracellular glycogen quantification; type: cell-based, mouse; settings: CDC54K hits; 10 uM, 3 h
astrocytes [2] = experiment: Intracellular glycogen quantification; type: cell-based, mouse; settings: Prestwick hits; 10 uM, 3 h
Procedure: For glycogen dosage, a protein dosage was first performed in order to assess whether harvested astrocytes from primary cell cultures yielded enough and equivalent amounts of proteins comparing each replicate, and to ensure that the obtained differences in glycogen quantities were due to drug action and not to inner protein quantities.
Astrocytes used for these dosages were previously grown in 6-well plates for 17 days and stimulated with Vehicle (DMSO) or drug of interest (1 μM to 100 μM) for 180 min, at 37° C. 5% CO2/95% air in D5030 complete medium. Medium was removed and replaced with 600 μl of 30 mM Tris HCl, and stored at −20° C.
Proteins were dosed using the micro BCA Protein Assay kit (Thermo Scientific), as described in the manufacturer's instructions. Briefly, thawed cells were sonicated and 5 μl aliquots were placed in a transparent 96-well plate, to which we added 25 μl 30 mM Tris HCl, 70 μl H2O and 100 μl of a BCA mix (made as described in manufacturer's guidelines). After a 120 min-incubation at 37° C., absorbance was measured with Safire 2 spectrophotometer at a wavelength of 562 nm, and protein quantities were determined from a standard curve of Bovine Serum Albumin (BSA).
Glycogen was quantified using a 250 μl-aliquot of the same stimulated, thawed, and sonicated cells. After an incubation period of 30 min at 90° C. and 400 rpm, 28 μl of an acetic acid/sodium acetate (both from Sigma) 0.1M pH 4.6 buffer was added to each aliquot, which was then separated in two. Each split aliquot received whether 5 μl of amyloglucosidase (Roche) or 5 μl H2O, and all cell solutions were incubated for 120 min in a shaking 37° C.-waterbath. After a centrifugation at 16'000 G for 5 min, 20 μl of supernatant were placed 96-well plate, to which 150 μl of a mix containing 0.67 mM ATP (Roche), 0.67 mM NADP (Roche), 1.8% hexokinase/glucose-6-phosphate dehydrogenase (Roche) and 0.1M Tris Buffer-HCl/3.3 mM magnesium (Fluka)/pH 8.1 buffer was added. Fluorescence was measured with Safire 2 spectrophotometer (340 nm excitation/440 nm emission). Glycogen concentration was obtained by subtracting glucose value of samples with amyloglucosidase to samples without amyloglucosidase, and were expressed relative to the amount of proteins previously determined.
Levels of intracellular glycogen in astrocytes were measured at 3 h after stimulation with 20 hits from the Prestwick library (10 μM each), as shown in FIG. 2. n=6-10; Ctrl pos. is glutamate (0.5 mM). Statistical analysis consisted in ANOVA followed by Fisher LSD post-hoc test for pair-wise comparisons.
Statistical analysis consisted in ANOVA followed by Fisher LSD post-hoc test for pair-wise comparisons.

[3] = system: C57Bl/6 male and female mice; experiment: In vivo chronic toxicity (28 days); settings: chronic administration 10 mg/kg; treatment interrupted
Procedure: During this period, clinical symptoms and weight were recorded.
Chronic toxicity was assessed.

[4] = system: C57Bl/6 male and female mice; experiment: Anxiety in elevated plus maze (EPM) after chronic treatment; type: in vivo, mouse; settings: end of 28-day chronic treatment, 10 mg/kg
Procedure: Total distance, frequency of entry and duration in the open arms were measured using Ethovision automatic scoring; n>10;

[5] = system: cerebral extracellular lactate; experiment: In vivo pharmacodynamics: lactate biosensors in cortex; set-up: species or system mouse; settings: 10 mg/kg per os
Procedure: Extracellular levels of lactate were monitored in vivo using lactate biosensors (Pinnacle Technology), according to the manufacturer's instructions. Cannulae were surgically implanted in mice cerebral cerebral motor cortex areas M1/M2 (coordinates: +1.94 mm (to bregma), lateral −1.4 mm (to mideline), ventral −1.0 mm (to dura)) 5-7 days before administration of the compounds. Drugs were administered per os as previously described, and cerebral levels of extracellular lactate were dynamically recorded for 6 hours. Mice were administered vehicle alone first, followed 3 hours later by vehicle or drug (10 or 100 mg/kg). Area Under the Curve (AUC) quantifying the fluctuations of extracellular lactate concentrations for each of the compound tested was calculated using Graphad Prism and the ratio of AUC after drug over Vehicle administration was calculated. Groups of 8 male mice were used for each condition.
To measure biological effect of lead molecules in vivo in the brain, lactate levels were quantified after administration of the drug by using lactate biosensors implanted in the cortex of freely moving mice.

C57Bl/6 female mice = settings: 100 mg/kg single per os, 14 days monitoring
Procedure: The compound was administered at 10 mg/kg.
In vivo acute toxicity was assessed with a starting maximal concentration of 100 mg/kg. […] Groups of 6-8 female mice were monitored for 14 days after single oral administration of the drug, weighted every day, and a macroscopic histological examination was performed at the end of the experiment. Clinical evaluation included the observation of mice' ability to feed, hydrate, notification of any visible pain, unusual grooming or respiration, blood loss, evidence of microbial infection, and/or significant loss of weight.
For this period, mice were weighted and clinically monitored (feeding, hydration, pain, grooming, respiration, blood loss, microbial infection). At the end of the 14-day evaluation, mice were sacrificed and high level organ analysis was performed. Drugs were always administered per os (gavage) in solution composed of Methocel 4KM 0.4%, Tween 0.25%.

cerebral glycogen = experiment: In vivo pharmacodynamics: glycogen levels in prefrontal cortex; set-up: species or system mouse; settings: 10 mg/kg
Text: To measure intracerebral levels of glycogen, mice were euthanized at different time points after drug administration, using a microwave beam (1 sec, 6 kW) focused directly on mice brains. This method of fixation results in the rapid inhibition of enzymatic reactions, thereby preserving intact metabolic state in the brain of euthanized animals. Glycogen concentration was quantified using standard biochemical procedure. Groups of 8 male mice were used for each condition.
Glycogen levels were measured in microwave-fixed PFC (prefrontal cortex, 6 kW, 1 sec), which ensures enzymatic inhibition and stops glycogen degradation. Samples were then flash frozen before dosage.
First, glycogen levels were analyzed at 1 h, 3 h and 6 h after drug administration. […] This time point was subsequently used for dose-response experiments. Glycogen levels were quantified at 3H after administration with GP-01 to GP-07 at 1, 10 or 100 mg/kg.

| Structure (SMILES) | mobilization of intracellular glycogen (primary astrocytes) | Glycogen (statistical significance of glycogen degradation) (astrocytes [1]) | Glycogen (statistical significance of glycogen degradation) (astrocytes [2]) | weight loss [3] [%] | anxiety in EPM [4] | cerebral lactate (AUC ratio vs vehicle) [5] | acute toxicity (toxic or not) (C57Bl/6 female mice) | PD effect (cerebral glycogen) |
| --- | --- | --- | --- | --- | --- | --- | --- | --- |
| O=S(=O)(Nc1cc(F)cc(F)c1)c1ccc2ccccc2c1 [T5884038] | significantly enhance the mobilization of intracellular glycogen | **** (****p<0.0001) | – | – | – | – | – | – |
| C#C[C@]1(O)CC[C@H]2[C@@H]3[C@H](C)CC4=C(CCC(=O)C4)[C@H]3CC[C@@]21C [Tibolone] | – | – | *** (***p<0.001) | > 20 | increased anxiety | Significant increase | – | – |
| [H]/N=C(\N/C(=N/[H])Nc1ccc(Cl)cc1)NC(C)C [Proguanil hydrochloride] | – | – | *** (***p<0.001) | – | – | – | toxic | did not show good PD effect |
